For experiment [1], the system named is Sigma receptor. Kind of experiment: Sigma receptor relative bond affinity (RBA), 3H PPP displacement, rat brain membranes. Format: binding. To be noted: for Relative bond affinity (RBA) for the Sigma receptor, Brain (rat): 3 nM 3H PPP, haloperidol set equal to 100; for Displacement of 3H PPP from the Sigma receptor (in words): also evaluated on testicles. On the procedure: (§1) The relative bond affinity was evaluated for preparations of rat brain and testicle membranes.
(§2) Male Sprague-Dawley rats originating from Iffa Credo and weighing approximately 200 g were used. The animals were scarified by decapitation and the brain and testicles were removed and homogenized in 10 to 25 volumes of 50 mM Tris-HCl buffer (pH 7.7) at 4° C. using an Ultrathurax. The homogenates were centrigued at 30,000 g for 15 minutes at 4° C. and the pellets were washed 3 times by resuspension in the same buffer and centrifugation under the same conditions. The membranes obtained in this way were stored at −80° C.
(§3) The marker of the sigma receptors used was ^3H PPP (propyl-3-(propyl-3-(3-hydroxyphenyl)-piperidine) of NEN having a specific activity of 3404 GBq/mmol. The membranes were suspended in the 50 mM Tris-HCl buffer, pH 8.0 to obtain a concentration of proteins of approximately 0.6 mg/ml for the testicles and 1 mg/ml for the brain. Aliquots of the homogenate were incubated for 90 minutes at 25° C. in a total volume of 0.5 ml with 3 nM of ^3H PPP in the presence of increasing concentrations of reference product (haloperidol) or of the products to be tested. At the end of the incubation, the 3H PPP bound to the membranes was separated from the free ^3H PPP by rapid filtration on Whatman GF/C filters pre-treated beforehand with 0.05% of polyethyleneimine. The precipitate was washed twice with 5 ml of Tris-HCl buffer and the radioactivity was counted after the addition of 20 ml of Aqualyte scintillating liquid (Baker).
(§4) The following two curves were drawn: percentage of bound tritiated marker 100×B/BO as a function of the logarithm of the concentration of unlabelled reference product or as a function of the logarithm of the concentration of unlabelled test product. The straight line of the following equation was determined:
(§5) BO=concentration of the bound tritiated marker in the absence of any unlabelled product.
B=concentration of the bound tritiated marker in the presence of a concentration X of unlabelled product.
Bmin=concentration of the bound tritiated marker in the presence of a large excess of the unlabelled reference product (5,000 nM).
The intersections of the straight line I50 and the curves allowed the evaluation of the concentrations of the unlabelled reference product (CH) and of the unlabelled test product (CX) which inhibited by 50% the specific binding of the tritiated marker on the receptor. The relative bond affinity (RBA) of the test product was determined by the equation:
The RBA of the haloperidol was arbitrarily set equal to 100.
A general note: Loss of bound radioactivity is the signal in a displacement assay; it reports binding, not function.

Experiment [2] deals with Sigma receptor. Kind of experiment: Sigma receptor relative bond affinity (RBA), 3H PPP displacement, rat testicle membranes. Format: binding. Conditions: 3 nM 3H PPP, haloperidol set equal to 100. On the procedure:
as §1, §2, §3, §4, §5
B=concentration of the bound tritiated marker in the presence of a concentration X of unlabelled product. […]

The test system of another experiment is human spermatozoids. Kind of experiment: Measurement of intracellular calcium in human spermatozoids (Fura2-AM fluorescence). Format: cell-based. On the procedure: The human sperm originated from healthy donors. […] The mobile spermatozoids were incubated for a minimum of 2 hours in the BWW/HSA capacitating medium and were then incubated at a concentration of 5-10×10^6/ml with Fura2-AM to a final concentration 2 μM at 37° C. for 45 minutes. After washing by centrifugation at 600 g for 10 minutes in. BWW without HSA, the spermatozoids were suspended at a concentration of 4×10^6/ml. The florescence signal was measured at 37° C. using a spectrofluorimeter at excitation wave lengths of 340 and 380 nm (PTIM 2001-Kontron) or at 340, 360 and 380 nm (Hitachi F 2000—B. Braun Science Tec.). The fluorescence emission was recorded at 505 nm. The progesterone or the products to be tested, dissolved in absolute ethanol, were added to the incubation medium at a final concentration of 0.1% of ethanol. When an antagonistic effect of the progesterone was sought, the product was added to the medium 2 minutes before the progesterone. At the end of the each dosage, 5 μM of ionomycin were added to the sample to measure the maximum fluorescence signal. […] These values allowed the intracellular concentration of calcium ([Ca^2+]i) to be calculated by the method described by Grunkiewicz et al. 1985, J. Biol. Chem., Vol. 260, pp. 3440-3450).
For orientation: A change in cytosolic calcium serves as a functional read-out for many receptors and channels.

From patent US6437157B1, “20-substituted steroids” (Hoechst Marion Roussel, priority 1994, dated 2002) come the findings set out here.

Regarding `C[C@H](NCCN(C)C)[C@@H]1CC[C@@H]2[C@H]3CCc4cc(O)ccc4[C@@H]3CC[C@]21C` [Example 1, (20S)(8α,9β,13α,14β,17α) 20-((dimethylamino)-ethyl)-amino-19-nor-Δ^1,3,5(10)-pregnatrien-3-ol], the “Relative bond affinity (RBA) for the Sigma receptor, Brain (rat)” value (from here on “Relative bond affinity (RBA) … Brain (rat)”) with Sigma receptor [1] worked out at 4.3. In addition, in the experiment on Sigma receptor [1], the “Displacement of 3H PPP from the Sigma receptor (in words)” value was “capable of displacing ^3H PPP”. The “Relative bond affinity (RBA) for the Sigma receptor, Testicle (rat)” value (shortened to “Relative bond affinity (RBA) … Testicle (rat)”) in the experiment on Sigma receptor [2] is listed as 58.0. For the same compound, the “[Ca2+]i relative to the basal level set equal to 1” value worked out at 1.0 ± 0.0 in the experiment with human spermatozoids (2 minutes pre-treatment with U 10^-5M + PROG. 10^-5M, Mean±SEM n=3); 2.63 ± 0.57 with human spermatozoids (2 minutes pre-treatment with U 10^-6M + PROG. 10^-5M, Mean±SEM n=3); 4.26 ± 1.93 with human spermatozoids (2 minutes pre-treatment with U 10^-7M + PROG. 10^-5M, Mean±SEM n=3); 3.33 ± 0.87 with human spermatozoids (2 minutes pre-treatment with U 10^-8M + PROG. 10^-5M, Mean±SEM n=3); 0.95 ± 0.05 in the experiment on human spermatozoids (Pre-treatment 2 mn with U 10^-5M + PROG. 10^-5M, Mean±SEM n=8); 0.95 ± 0.05 with human spermatozoids (U 10^-5M alone, Mean±SEM n=8). Further, the “Antagonistic effect on the progesterone-induced [Ca2+]i increase (in words)” value in the experiment with human spermatozoids (Product U 10^-5M added 2 minutes before the progesterone) was “completely antagonized the effect of progesterone”.
As to `O=C(CCCN1CCC(O)(c2ccc(Cl)cc2)CC1)c1ccc(F)cc1` [Haloperidol], the “Relative bond affinity (RBA) … Brain (rat)” value with Sigma receptor [1] is given as 100.0. In the experiment on Sigma receptor [2], the “Relative bond affinity (RBA) … Testicle (rat)” value came out at 100.0.
Take `CC(=O)[C@H]1CC[C@H]2[C@@H]3CCC4=CC(=O)CC[C@]4(C)[C@H]3CC[C@]12C` [Progesterone, reference compound]: in the experiment with Sigma receptor [1], the “Relative bond affinity (RBA) … Brain (rat)” value is 0.7 and the “Displacement of 3H PPP from the Sigma receptor (in words)” value was “capable of displacing ^3H PPP”. In addition, the “Relative bond affinity (RBA) … Testicle (rat)” value with Sigma receptor [2] turned out to be 0.3. Moreover, the “[Ca2+]i relative to the basal level set equal to 1” value in the experiment with human spermatozoids (PROG. 10^-5M alone, Mean±SEM n=3) is listed as 3.67 ± 0.97. Besides, in the experiment on human spermatozoids (PROG. 10^-5M alone, Mean±SEM n=8), the “[Ca2+]i relative to the basal level set equal to 1” value came to 5.76 ± 0.84. The “Effect on the intracellular calcium of human spermatozoids (in words)” value in the experiment on human spermatozoids (progesterone 10^-5 M alone) is “induced a transitory increase of the [Ca^2+]i”.
